Each block holds one compound with its values, some of them ahead of it. Ends that are not written are not given here. FAM = fluorescein label
How the values were obtained:
[1] = tested on: porcine iliofemoral arteries; settings: arteries infected with adenoviral vector encoding tk, then exposure to ganciclovir; cited from earlier work
[2] = tested on: cells released from plaques; test: FACS analysis of cells released from plaques after in vivo circulation of FAM-peptides; set-up: species or system mice (ApoE-null); settings: for % of FAM positive cells among cells released from plaques: after 4 hours in vivo circulation
From the text: (§1) Atherosclerotic plaques in male and female mice homozygous for the ApoetmlUnc mutation (ApoE-null mice) (The Jackson Laboratory) were induced by maintaining the mice on a high fat diet (Reddick et al., Arterioscler. Thromb. 14:141-147 (1994); Maeda et al., Atherosclerosis 195:75-82 (2007)) for 6 to 8 months. Healthy aortas were obtained from age-matched C7BL/6 wild-type mice fed on a normal diet. The mice were housed and all procedures performed with the approval and according to standards of the University of California, Santa Barbara and University of California, Davis Institutional Animal Care and Use Committees. To test peptide homing, the mice were injected intravenously via retro-orbital under isoflurane inhalation (isoflurane 2% to 3% vol/vol+2 L/min O2) anesthesia and, when applicable, subsequently perfused with high glucose DMEM through the left ventricle to remove unbound reagent. Tissues were excised and left unfixed or fixed with 4% paraformaldehyde.
Cells from plaques and other tissues were released into suspension by 2-hour incubation at 37° C. in a tissue digestion cocktail containing 450 U/mL collagenase type 1 (Worthington Biochemical), 1 mg/mL soybean trypsin inhibitor (Worthington Biochemical), 4.7 U/mL elastase (Worthington Biochemical), 1 mg/mL DNase 1 (Sigma Aldrich) and 0.5% fetal calf serum (FCS). CD11b PE-Cy5 (rat monoclonal, eBioscience) was used to identify monocytes/macrophages. Positive cells were quantified on GUAVA FACS instrument (Millipore) and data were analyzed using FCS Express Version 3 (De Novo Software).
To detect peptide homing to plaques, the distribution of intravenously injected peptides that had been labeled with fluorescein ([…]; FAM) were analyzed. […] Staining with an anti-fluorescein antibody confirmed the presence of LyP-1 in the plaques. For comparison, mice were also injected with a peptide previously shown to home to plaques, CREKA (SEQ ID NO:4) (Peters et al., Proc. Natl. Acad. Sci. USA 106:9815-9819 (2009)). […]

[3] = tested on: primary cells released from plaques; test: Peptide binding ex vivo (FACS); assay type: cell-based, mice (ApoE-null); settings: 1 nmol FAM-peptide, 10 min on ice
Method: (§2) Dead cells were first removed from the cell suspension released from aorta, isolated macrophages from 4T1 tumors and spleen and bone marrow cells using Dead cell removal kit (Miltenyi Biotec). Cells were incubated with 1 nmol of either FAM-LyP-1 or FAM-ARAL (SEQ ID NO:5) for 10 min on ice. After washing, the cell pellets were resuspended in buffer containing 1 μg propidium iodide. Cells positive for FAM and propidium iodide staining were quantified on GUAVA FACS instrument (Millipore) and data were analyzed using FCS Express Version 3 (De Novo Software). The % of viable cells after dead cell removal in each case was >75%.

[4] = tested on: CD11b-positive macrophages from 4T1-tumors; test: Peptide binding ex vivo (FACS); assay type: cell-based, mice (BALB/c); settings: 1 nmol FAM-peptide, 10 min on ice
Method: (§3) To produce 4T1 tumors, normal female BALB/c mice were orthotopically injected into the mammary fat pad with 1×10^6 4T1 cells suspended in 100 μL of PBS. All animal experimentation received approval from the Animal Research Committee of University of California, Santa Barbara. Fully grown 4T1 tumors and control spleen were excised from the mice two weeks after inoculation, minced and incubated with tissue digestion cocktail containing 2 mg/mL Collagenase IV (Worthington Biochem Corp) and 1 mg/mL DNAse 1 (Sigma) solution in high glucose DMEM media (Gibco) at 37° C. for 1 hour. Cells were passed through 70 μm nylon mesh cell strainer (BD). CD11b-positive macrophages were isolated using the MACS CD11b-positive microbeads (Miltenyi Biotec).
as §2

[5] = tested on: 4T1 tumors; test: Treatment of 4T1 tumor mice with peptide, effect on tumor macrophages; assay type: in vivo, mice (BALB/c); settings: 60 μg daily tail vein injections for 12 days, versus control peptide
Method: The effect of LyP-1 peptide treatment of mice with tumors was tested. To produce 4T1 breast cancer tumors, normal female BALB/c mice were orthotopically injected into the mammary fat pad with 1×10^6 4T1 cells suspended in 100 μL of PBS. The mice were treated with daily tail vein injections of 60 μg of LyP-1 or control peptide ([…]; SEQ ID NO:6) for 12 days. […] Cell suspensions were prepared from 4T1 tumors from mice treated with LyP-1 or the control peptide. The tumors were incubated for 1 hour at 37° C. in a tissue digestion cocktail containing 2 mg/mL Collagenase IV (Worthington Biochem Corp) and 1 mg/mL DNAse 1 (Sigma) in high glucose DMEM media (Gibco). The resulting cell suspension was passed through 70 μm nylon mesh cell strainer (BD), and the live cells were double stained for cell surface p32 (rabbit anti-mouse p32, Fogal et al., supra (2008)) and macrophages (rat anti-mouse CD11b, ebioscience) and analyzed by FACS.

[6] = tested on: bone marrow cells; test: Peptide binding ex vivo (FACS); assay type: cell-based, mice (ApoE); settings: 1 nmol FAM-peptide, 10 min on ice
Method: Bone marrow cells were isolated from the tibias and femurs of ApoE mice on high fat diet by flushing high glucose DMEM media (Gibco) using an 18 gauge needle and passed through a 70 μm nylon mesh cell strainer (BD).
as §2

[7] = tested on: dermatitis; test: Treatment of dermatitis in ApoE-null mice on high-fat diet; assay type: in vivo
Method: The effect of LyP-1 treatment on dermatitis was tested. ApoE-null mice that were on a high-fat diet and suffered from severe dermatitis refractory to topical antibiotic treatment were treated with intraperitoneal injections of 200 μg of LyP-1 or control peptide ([…]; SEQ ID NO:6) three times a week for one month (while continuing their diet). The condition of the skin before and after the treatment was recorded in photographs. […] Thus, LyP-1 treatment improves dermatitis.
The effect of LyP-1 on skin dermatitis correlates with reduced in p32 expression and macrophage accumulation. Mice treated as above in FIG. 19 were intravenously injected with 100 μL of 1 mM fluorescein-labeled LyP-1 and peptide was allowed to circulate for 2 hours. Sections of skin biopsies obtained before and after 4 weeks of LyP-1 treatment were analyzed.

[8] = tested on: plaque macrophages; test: Effect of treatment on plaque macrophages (FACS of cells released from plaques); assay type: in vivo, mice (ApoE null); settings: after 4 weeks of treatment, versus control-treated aortas
Method: (§4) The effect of LyP-1 treatment on plaque formation was tested. ApoE null mice fed a high-fat diet for 5 months were treated with intraperitoneal injections of 200 μg of LyP-1 or control peptide ([…]; SEQ ID NO:6) three times a week for one month (while continuing their diet).
The effect of LyP-1 treatment on plaque macrophages was tested.

[9] = tested on: monocytes/macrophages isolated from spleen; test: Peptide binding ex vivo (FACS); assay type: cell-based, mice; settings: 1 nmol FAM-peptide, 10 min on ice
Method: as §3, §2

[10] = tested on: atherosclerotic plaques; test: Homing of intravenously injected FAM-labeled peptides to plaques, fluorescence histology of aorta sections; assay type: in vivo, mice (ApoE-null); settings: for accumulation in plaque tissue (fluorescence of aorta sections): atherosclerotic ApoE-null mice, 100 μg FAM-peptide intravenously, 1 hour circulation
From the text: as §1
Fresh frozen OCT-embedded tissue was sectioned at 7 μm, fixed with ice cold acetone, blocked with 4% serum in PBS, and stained with antibodies. The following antibodies were used: anti-mouse p32 (rabbit polyclonal; (Fogal et al., supra (2008)), CD68 (rat monoclonal, eBioscience), CD11b (rat monoclonal, eBioscience), CD31 (rat monoclonal, eBioscience), podoplanin (hamster monoclonal, eBioscience), LYVE-1 (rat monoclonal, eBioscience), anti-FITC-HRP (goal polyclonal, ACRIS). Purified rat IgG2a K isotype control (BD Pharmingen), normal rabbit IgG (R&D) and normal goat IgG (R&D) were used as controls. The following secondary antibodies from Invitrogen were used for detection: goat anti-rat 488/546, goat anti-rabbit 488/546, donkey anti-goat 488/546, goat anti-hamster 546 and goat anti-rat 647. Primary antibodies were incubated for 1 to 4 hours at room temperature, or at 4° C. to detect cell surface expression. Stained tissue sections were mounted in Vectorshield DAPI-containing mounting media (Vector lab). […]
Tissue sections were examined under a FluoView™ 500 confocal laser-scanning microscope (Olympus) or BX60 fluorescence microscope with MiroFire camera (Olympus). Whole-tissue uptake of fluorescein-labeled peptides following in vivo circulation was imaged using a 530-nm viewing filter, Illumatool light source (Light Tools Research) and recorded with a Canon XTi DSLR camera.
To detect peptide homing to plaques, the distribution of intravenously injected peptides that had been labeled with fluorescein ([…]; FAM) were analyzed. […]
Atherosclerotic mice were injected with 100 μg of FAM-LyP-2 and the probe was allowed to circulate for 1 hour. Following 1 hour of circulation, the aorta was collected and the peptide was detected in tissue sections by fluorescence detection.

[11] = tested on: atherosclerotic plaques; test: Effect of treatment on plaque formation; assay type: in vivo, mice (ApoE null); settings: 200 μg intraperitoneally three times a week for one month, high-fat diet
Method: as §4

[12] = tested on: mitochondrial membranes; settings: concentration of 10 μM; cited from earlier work
[13] = after 4 weeks of treatment, versus control-treated mice
[14] = 100 μL of 1 mM intravenously, 2 hours circulation

Compound: Nc1nc(O)c2ncn(COC(CO)CO)c2n1 [ganciclovir]
reduction of neointimal thickening following balloon injury [1]: 50-87%

Compound: ARALPSQRSR
% of FAM positive cells among cells released from plaques [2]: 7.5±4.1%

binding to CD11b-positive macrophages from 4T1-tumors [4]: significant binding
binding to monocytes/macrophages isolated from spleen [9]: little binding
Compound: CGNKRTRGC (disulfide (positions not given here); not fully specified (bridges); also: cyclic, kind not given here) [LyP-1]
binding to primary cells released from plaques [3]: significant binding
macrophages positive for cell surface p32 in 4T1 tumors [5]: reduced
total number of macrophages (CD11b-positive cells) in 4T1 tumors [5]: reduced
binding to bone marrow cells [6]: little binding
skin condition (dermatitis) ([7]; 200 μg intraperitoneally three times a week for one month): significant improvement of their skin condition
cells positive for CD11b and p32 in skin [7, 13]: smaller numbers of cells positive for CD11b and p32
skin thickness of healed dermatitis skin [7, 13]: reduced thickness
percentage of total macrophages (p32-positive and negative) among cells released from plaques [8]: lower percentage of total macrophages
accumulation in healthy aortas and non-aortic tissues of the atherosclerotic mice ([10]; intravenous FAM-peptide): no significant accumulation
plaque formation in excised ascending and descending aorta [11]: reduced plaque formation

Compound: CREKA
CD11b-positive plaque cells positive for peptide uptake ([2]; 4 hours after intravenous injection): taken up by a small number of CD11b-negative cells
% of FAM positive cells among cells released from plaques [2]: 18.1±4.6%

Compound: D(KLAKLAK)2 (KLAKLAKKLAKLAK; D-amino acids)
mitochondrial swelling [12]: marked mitochondrial swelling

Compound: FAM-ARALPSQRSR: control peptide ARALPSQRSR labeled with FAM ({FAM}-ARALPSQRSR) [reference compound]
accumulation in plaque tissue (fluorescence of aorta sections) [10]: did not accumulate in the plaques

Compound: FAM-CREKA: CREKA peptide labeled with fluorescein (FAM) ({FAM}-CREKA) [reference compound]
accumulation in plaque tissue (fluorescence of aorta sections) [10]: essentially confined to the surface of the plaques

Compound: FAM-LyP-1: LyP-1 peptide labeled with fluorescein (FAM) ({FAM}-CGNKRTRGC; disulfide (positions not given here); not fully specified (bridges); also: cyclic, kind not given here)
peptide homing to healed dermatitis skin from LyP-1-treated mice [7, 14]: attenuated LyP-1 homing
peptide homing to inflamed skin from control-treated mice [7, 14]: robust LyP-1 homing
peptide homing to normal skin [7, 14]: no LyP-1 homing
accumulation in plaque tissue (fluorescence of aorta sections) [10]: extensive accumulation of FAM-LyP-1 inside the plaque tissue

Reference: patent US9061079B2, “Peptides that home to atherosclerotic plaques and methods of use” (Sanford-Burnham Medical Research Institute, priority 2011, dated 2015)
